Data reported in US8765713B2, “Method for determination of sensitivity to anti-cancer agent” (Keio University, priority 2009, dated 2014).

How the values were obtained:
HCT116 cells [1] = assay: Intracellular protein level after drug exposure by SELDI-TOF MS, HCT116; format: cell-based, human; conditions: 4 to 48 hours
Procedure: (§1) Based on the results of (c) above, the drug concentration employed in the exposure test was determined. The 5-FU+L-OHP combination concentration was adjusted to the following four levels: 2 μ[…], and 100 μM+10 μM, the 5-FU concentration (exposure to single agent) was adjusted to 2 μM and 100 μM, and the L-OHP concentration (exposure to single agent) was adjusted to 1 μM and 10 μM. In addition, the exposure test was conducted at a drug-free concentration (control). That is, nine concentrations in total were employed. Drug exposure time was adjusted to the following five periods of time: 0 hour (just before exposure), 4 hours, 12 hours, 24 hours, and 48 hours. After completion of exposure, cell count was performed, and intracellular proteins were extracted. The medium was removed from the dish and washed thrice with ice-cooled PBS. The cells on the dish was collected by scraping with a rubber policeman. The thus-obtained cell suspension was transferred to a 1.5-mL microtube. The cell suspension was centrifuged at 4° C. and 1,200×g for 10 minutes, and the cells were recovered. After removal of the supernatant, a cell lysis buffer (9 mol/L urea, 2% CHAPS, 1 mM DTT, protease-inhibitor cocktail (Sigma)) was added in a volume of 200 μL with respect to 10,000,000 cells. The liquid was subjected to untrasonic treatment under cooling with ice. The thus-treated product was centrifuged at 4° C. and 16,000×g for 20 minutes, and the supernatant was quickly frozen with liquid nitrogen. The frozen product was stored at -80° C. before analysis. An aliquot of the supernatant was subjected to protein quantification (DC Protein Assay Kit, Bio-Rad). The protein sample was mixed with a cell lysis buffer (excluding protease inhibitor), to thereby adjust the protein concentration to 2.5 mg/mL. The liquid was further mixed with a dilution/washing buffer (pH: 4.5, 50 mM sodium acetate buffer) (hereinafter referred to simply as “buffer”), to a protein concentration of 0.5 mg/mL. The thus-prepared sample (100 μL) was applied to spots of a cation-exchange ProteinChip array (CM10, Bio-Rad) which had been conditioned in advance with the same buffer. Incubation was performed for one hour for reaction, and the chip array was washed thrice with the buffer and rinsed twice with milliQ water, followed by drying in air. Energy absorbing molecule (EAM: saturated solution of sinapinic acid in 50% ACN/0.5% TFA) (1.0 μL ([…])) was added to each spot. After the surface of the spot was dried, analysis of the ProteinChip array was performed. […] As an analyzer, ProteinChipTM Reader (Model PCS4000 Personal Edition, Bio-Rad) was used and the analysis was performed under the following conditions: mass range of 0 to 70,000 Da, focus mass of 8,000 Da, energy of 3,000 or 4,000 nJ, and 265 shots/sample. […]

HCT116 cells [2] = assay: MTS assay cell viability after drug exposure, HCT116
Procedure: (§2) Two human colorectal cancer cell lines (HCT116 and DLD-1) were obtained from ECACC. Cell culturing was performed by means of a φ000 mm/Tissue Culture Dish (IWAKI) with a medium (D-MEM, 2 mM glutamine, 10% fetal bovine serum) at 37° C. under 5% CO2.
(§3) Two colorectal cancer cell lines (HCT116 and DLD-1) were exposed to a drug, and 24 hours and 48 hours after drug exposure, cell viability was determined by means of an MTS assay (CellTiter96™AQueous One Solution Cell Proliferation Assay, Promega). Drug exposure conditions were as follows. 5-FU (single agent) was used at the following 11 concentrations: control (0 μM), 0.001 μM, 0.01 μM, 0.1 μM, 1 μM, 3 μM, 10 μM, 30 μM, 100 μM, 1,000 μM, and 10,000 μM. L-OHP (single agent) was used at the following 11 concentrations; control (0 μM), 0.001 μM, 0.01 μM, 0.1 μM, 0.3 μM, 1 μM, 3 μM, 10 μM, 30 μM, 100 μM, and 1,000 μM. […]
(§4) Sensitivity analysis was performed from viability data calculated from MTS assay results. The presence or absence of combined effect was determined through comparison of viability obtained by exposure to a combination with that obtained by exposure to a single agent at the same concentration as employed at the exposure to the combination.

DLD-1 cells [3] = assay: MTS assay cell viability after drug exposure, DLD-1
Procedure: as §2, §3, §4

DLD-1 cells [4] = assay: Intracellular protein level after drug exposure by SELDI-TOF MS, DLD-1; format: cell-based, human; conditions: DLD-1, SELDI-TOF MS, 4 to 48 hours
Procedure: as §1

SMILES: O=C1[O][Pt]2([NH][C@@H]3CCCC[C@H]3[NH]2)[O]C1=O [L-OHP, (SP-4-2)-[(1R,2R)-cyclohexane-1,2-diamine-κN,κN′][ethanedioato(2-)-κO^1,κO^2]platinum]
- levels of proteins A to C and G to K after exposure (HCT116 cells [1]): no significant difference
- levels of proteins D and M after exposure (HCT116 cells [1]): decrease
- cell viability (HCT116 cells [2]; HCT116, 1 μM L-OHP, 48 hours): about 37%
- cell viability (DLD-1 cells [3]; DLD-1, 1 μM L-OHP, 48 hours): about 82%
- levels of proteins A to C and G to K after exposure (DLD-1 cells [4]): increase
- levels of proteins D and M after exposure (DLD-1 cells [4]): no significant difference

SMILES: O=c1[nH]cc(F)c(=O)[nH]1 [5-FU, Fluorouracil]
- levels of proteins A to C, F, and H to K after exposure (HCT116 cells [1]): no significant difference
- levels of proteins D and M after exposure (HCT116 cells [1]): decrease
- viability at 100 µM (HCT116 cells [2]; Homo sapiens, HCT-116, 48 h, read-out: cell viability): ~24%
- viability at 100 µM (DLD-1 cells [3]; Homo sapiens, DLD-1, 48 h, read-out: cell viability): ~49%
- levels of proteins A to C, F, and H to K after exposure (DLD-1 cells [4]): increase
- levels of proteins D and M after exposure (DLD-1 cells [4]): no significant difference
